Values after ≈ are worked out from the molar mass of the structure shown.
Test system: Mycobacterium tuberculosis
Test: Antimycobacterial activity against multi-drug resistant Mycobacterium tuberculosis
Format: functional

Row | Structure (SMILES) | MIC [µg/mL]
1 | NNC(=O)c1ccncc1 [ISONIAZID] | 4 (≈ 29.2 µM)
2 | O=C1c2ccccc2-n2c1nc1ccccc1c2=O [TRYPTANTHRIN] | 0.5 (≈ 2.01 µM)
